Among the test systems are PC-3; 786-0; SF-268; ACHN; MOLT-4; NCI-H226; DU-145; HCT-15; MDA-MB-435; HL-60; RXF 393; MDA-MB-231; SF-539; UO-31; RPMI-8226; A498; EKVX; MDA-N; Hs-578T; IGROV-1.
Test in all cases: NCI tumour cell line growth inhibition, 48 h

The structures appear in SMILES notation.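 Test compounds were applied to cells in 96-well plates for 48 hours at 5 doses. Abbreviation: GI50, concentration required for 50% inhibition of growth.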 Activity calls are given as the source filed them. No stated cut-off is given here; in the data, active = GI50 up to about 1.1 µM and inactive = higher. Non-standard residues stand in square brackets, D forms with d. Residues, ends and D or L forms follow the SMILES beside them. ξ: configuration not given here. *: point of attachment. NMeY = CN[C@@H](Cc1ccc(O)cc1)C(=O)O; Cbz = O=C(OCc1ccccc1)*; ξA = CC(N)C(=O)O

`COc1ccc(C[C@@H](C(=O)NCC(N)=O)N(C)C(=O)[C@@H]2CCCN2C(=O)[C@H](CC(C)C)NC(=O)C(C)NC(=O)OCc2ccccc2)cc1` (stereo not given in full) (Cbz-[ξA]LP[NMeY](Me)G-NH2): the GI50 in the assay on PC-3, in the assay with 786-0, in the assay on SF-268, in the assay on ACHN, with MOLT-4 and in the assay on NCI-H226 was > 100 µM (inactive) throughout. The GI50 with DU-145 is > 100 µM (inactive); in the assay on HCT-15 it was > 100 µM; in the assay with MDA-MB-435, > 100 µM (inactive); in the assay on HL-60 it was > 100 µM (inactive); in the assay with RXF 393, > 100 µM (inactive); in the assay with MDA-MB-231, > 100 µM (inactive). For the same compound, the GI50 in the assay with SF-539, in the assay on UO-31, in the assay with RPMI-8226, with A498, with EKVX and with MDA-N was > 100 µM (inactive) throughout. Besides, the GI50 in the assay with Hs-578T and in the assay with IGROV-1 was > 100 µM (inactive) each time.

As to `O=c1ssc2c1Nc1c(ssc1=O)S2`, the GI50 with PC-3 was 12.6 µM (inactive); in the assay on 786-0, 3.87 µM (inactive); in the assay on SF-268, 16.2 µM (inactive); with ACHN, 16.6 µM (inactive); with MOLT-4 it was 9.51 µM (inactive); in the assay on NCI-H226 it was 23.4 µM (inactive). For the same compound, the GI50 with DU-145 was 13.4 µM (inactive); with HCT-15, 11.4 µM; with MDA-MB-435 it was 18.5 µM (inactive); with HL-60 it was 4.48 µM (inactive); with RXF 393, 4.42 µM (inactive); in the assay on MDA-MB-231, 23.4 µM (inactive). The GI50 is 7.21 µM (inactive) with SF-539; 11.4 µM (inactive) in the assay with UO-31; 5.04 µM (inactive) in the assay with RPMI-8226; 11.9 µM (inactive) with A498; 15.4 µM (inactive) with EKVX; 16.1 µM (inactive) in the assay on MDA-N. Besides, the GI50 in the assay on Hs-578T was 33.7 µM (inactive); in the assay with IGROV-1, 13.2 µM (inactive).

On to `COc1ccc(/C(=N/O)c2ccccc2-c2nc3ccccc3c(=O)n2-c2ccc(S(=O)(=O)Nc3ncccn3)cc2)cc1C`, for which the GI50 is 19.7 µM (inactive) in the assay with PC-3; > 10 µM (inactive) in the assay on 786-0; 16.7 µM (inactive) in the assay on SF-268; 14.4 µM (inactive) in the assay on ACHN; 12.2 µM (inactive) with MOLT-4; > 10 µM (inactive) in the assay with NCI-H226. For the same compound, the GI50 was 21.1 µM (inactive) in the assay on DU-145; 14 µM in the assay on HCT-15; 14.9 µM (inactive) with MDA-MB-435; 11.8 µM (inactive) in the assay on HL-60; 11.1 µM (inactive) in the assay with RXF 393; 18.4 µM (inactive) with MDA-MB-231. For the same compound, the GI50 with SF-539 was 13.2 µM (inactive); with UO-31 it was 19.6 µM (inactive); with RPMI-8226, 14.6 µM (inactive); in the assay on A498 it was 20.4 µM (inactive); in the assay with EKVX it was 16.5 µM (inactive); in the assay on MDA-N it was 18.3 µM (inactive). The GI50 is 29.4 µM (inactive) in the assay with Hs-578T and 17.8 µM (inactive) with IGROV-1.

With `Cc1cccc2c1CC1(Cc3ccccc3C1=O)C2=O` (stereo not given), the GI50 is > 100 µM (inactive) with PC-3; > 100 µM (inactive) with 786-0; 87.1 µM (inactive) with SF-268; > 100 µM (inactive) in the assay with ACHN; > 100 µM (inactive) in the assay on MOLT-4; > 100 µM (inactive) in the assay on NCI-H226. Besides, the GI50 with DU-145 was > 100 µM (inactive); with HCT-15, > 100 µM; in the assay with MDA-MB-435 it was > 100 µM (inactive); with HL-60, > 100 µM (inactive); with RXF 393, > 100 µM (inactive); in the assay with MDA-MB-231, > 100 µM (inactive). Further, the GI50 in the assay with SF-539, in the assay on UO-31, in the assay with RPMI-8226, in the assay with A498, in the assay with EKVX and in the assay on MDA-N was > 100 µM (inactive) each time. In addition, the GI50 with Hs-578T was 26.2 µM (inactive); with IGROV-1, > 100 µM (inactive).

With `CC(C)(C)OC(=O)N1CC(CCl)c2ccc(O)cc21` (stereo not given), the GI50 is 1.87 µM (inactive) in the assay with PC-3; 3.74 µM (inactive) in the assay on 786-0; 1.58 µM (inactive) in the assay with SF-268; 1.11 µM (active) in the assay with ACHN; 1.3 µM (inactive) in the assay on MOLT-4; 2.06 µM (inactive) with NCI-H226. In addition, the GI50 in the assay with DU-145 is 0.589 µM (active); in the assay on HCT-15, 2.59 µM; in the assay with MDA-MB-435, 1.99 µM (inactive); with HL-60, 1.87 µM (inactive); in the assay on RXF 393, 0.693 µM (active); in the assay on MDA-MB-231, 2.53 µM (inactive). Besides, the GI50 with SF-539 is 2.16 µM (inactive); in the assay on UO-31, 2.29 µM (inactive); with RPMI-8226, 1.75 µM (inactive); in the assay with A498, 2.06 µM (inactive); in the assay on EKVX it was 2.75 µM (inactive); with MDA-N, 1.86 µM (inactive). The GI50 was 2.8 µM (inactive) with Hs-578T and 3.84 µM (inactive) in the assay with IGROV-1.

Regarding `COCOC1/C=C/CCCCC(=O)C(C)C#CC1` (stereo not given), the GI50 was 11.4 µM (inactive) in the assay with PC-3; 2.09 µM (inactive) with 786-0; 15.1 µM (inactive) in the assay on SF-268; 6.67 µM (inactive) in the assay with ACHN; 2.09 µM (inactive) in the assay on MOLT-4; 17.2 µM (inactive) with NCI-H226. The GI50 in the assay with DU-145 is 12.8 µM (inactive); with HCT-15, 2.36 µM; with MDA-MB-435 it was 5.52 µM (inactive); with HL-60 it was 1.71 µM (inactive); in the assay on RXF 393, 3.06 µM (inactive); with MDA-MB-231, 4.73 µM (inactive). For the same compound, the GI50 in the assay with SF-539 is 5.7 µM (inactive); in the assay on UO-31, 5.7 µM (inactive); with RPMI-8226, 1.46 µM (inactive); in the assay with A498, 10.7 µM (inactive); in the assay with EKVX, 9.86 µM (inactive); in the assay on MDA-N it was 11.5 µM (inactive). Besides, the GI50 in the assay on Hs-578T was 20.3 µM (inactive); with IGROV-1 it was 3.65 µM (inactive).

For the compound `O=C(c1cccs1)N1CCc2ccccc2C1`, the GI50 with PC-3, in the assay with 786-0, with SF-268, with ACHN, in the assay with MOLT-4 and in the assay on NCI-H226 was > 100 µM (inactive) each time. Moreover, the GI50 was > 100 µM (inactive) in the assay with DU-145; > 100 µM in the assay on HCT-15; 33.3 µM (inactive) with MDA-MB-435; 30.7 µM (inactive) in the assay on HL-60; > 100 µM (inactive) with RXF 393; > 100 µM (inactive) in the assay on MDA-MB-231. Further, the GI50 was > 100 µM (inactive) in the assay with SF-539; > 100 µM (inactive) in the assay with UO-31; 85.9 µM (inactive) with RPMI-8226; > 100 µM (inactive) with A498; 97.1 µM (inactive) with EKVX; 32.2 µM (inactive) in the assay on MDA-N. For the same compound, the results for the GI50 in the assay on Hs-578T and in the assay on IGROV-1 were 85.5 µM (inactive) and > 100 µM (inactive), respectively.

As for `CC(=O)C(=Cc1ccc(C=C(C(C)=O)C(C)=O)cc1)C(C)=O`, the GI50 in the assay with PC-3 is 1.9 µM (inactive); with 786-0, 2.17 µM (inactive); in the assay with SF-268, 1.41 µM (inactive); in the assay on ACHN, 1.76 µM (inactive); in the assay with MOLT-4 it was 0.244 µM (active); with NCI-H226, 3.23 µM (inactive). In addition, the GI50 in the assay with DU-145 was 3.81 µM (inactive); in the assay on HCT-15 it was 0.977 µM; in the assay on MDA-MB-435 it was 1.63 µM (inactive); with HL-60, 0.31 µM (active); in the assay with RXF 393 it was 1.9 µM (inactive); in the assay on MDA-MB-231, 1.97 µM (inactive). Moreover, the GI50 was 2.1 µM (inactive) with SF-539; 1.6 µM (inactive) in the assay on UO-31; 0.282 µM (active) in the assay with RPMI-8226; 2.58 µM (inactive) with A498; 5.31 µM (inactive) in the assay on EKVX; 2.22 µM (inactive) in the assay on MDA-N. Also, the GI50 is 3.58 µM (inactive) in the assay on Hs-578T and 2.02 µM (inactive) in the assay on IGROV-1.

The record behind these values is ChEMBL document CHEMBL1201862, “PubChem BioAssay data set” (2004).
